Publication PMC3272345 (Chemmedchem, 2011)

Experiments:
Leishmania CRK3–CYC6 = biological target: T1, Leishmania CRK3–CYC6 (Leishmania mexicana, UniProt O15851); test: radiometric CRK3 assay; format: biochemical, L. mexicana CRK3, L. major CYC6
T1 sequence (O15851 1-311): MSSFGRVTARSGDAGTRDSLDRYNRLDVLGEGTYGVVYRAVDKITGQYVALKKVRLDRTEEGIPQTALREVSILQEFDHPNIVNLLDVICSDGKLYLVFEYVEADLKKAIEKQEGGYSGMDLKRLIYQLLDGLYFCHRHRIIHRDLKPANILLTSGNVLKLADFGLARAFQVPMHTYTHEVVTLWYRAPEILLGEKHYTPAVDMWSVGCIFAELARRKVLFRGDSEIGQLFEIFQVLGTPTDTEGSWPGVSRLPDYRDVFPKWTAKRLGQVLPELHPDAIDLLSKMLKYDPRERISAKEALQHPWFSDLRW
T1 sequence (Q4Q4U0 1-303 partner): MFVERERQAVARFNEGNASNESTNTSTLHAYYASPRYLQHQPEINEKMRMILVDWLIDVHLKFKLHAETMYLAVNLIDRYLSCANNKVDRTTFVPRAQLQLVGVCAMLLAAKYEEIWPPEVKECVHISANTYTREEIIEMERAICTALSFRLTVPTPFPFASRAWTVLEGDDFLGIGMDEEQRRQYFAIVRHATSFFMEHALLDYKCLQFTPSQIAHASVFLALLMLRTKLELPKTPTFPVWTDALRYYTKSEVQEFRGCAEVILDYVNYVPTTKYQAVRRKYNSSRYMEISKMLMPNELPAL

HsCDK2–CYCA = HsCDK2–CYCA (Homo sapiens, UniProt P24941); test: radiometric CDK2 counter-screen; format: biochemical; conditions: HsCDK2–CYCA IC50 [μM], mean of two or more experiments; 1 μM ATP
[1] = biological target: T2, Leishmania CRK3–CYC6 complex (Leishmania mexicana, UniProt O15851); test: IMAP-FP primary screen; format: biochemical, L. mexicana CRK3, L. major CYC6; conditions: for inhibition at 30 µM: read-out: CRK3–CYC6 Inhib. [%]
T2 sequence (O15851 1-311): T1 sequence (O15851 1-311)
T2 sequence (Q4Q4U0 1-303 partner): T1 sequence (Q4Q4U0 1-303 partner)

[2] = system: panel of 76 human kinases; test: DSTT Dundee kinase panel; format: biochemical; conditions: for selectivity against panel of 76 human kinases (in words): 10 μM
[3] = mammalian cell line counter-screen; format: cell-based; conditions: human, MRC5 cells
[4] = CRK3–CYC6 IC50 [μM], mean of two or more experiments, 1 μM ATP

Row | Compound | IC50 (Leishmania CRK3–CYC6; [4]) [µM] | IC50 (HsCDK2–CYCA) [µM] | other results
1 | O=C(Nc1cc(-c2ccc(Cl)cc2)[nH]n1)C1CCC1 [Compound 7, N-(5-(4-Chlorophenyl)-1H-pyrazol-3-yl)cyclobutanecarboxamide] | 0.9 | 1.2 | inhibition at 30 µM [1]: 99%
2 | Cc1cccc(-c2ccc3nc(NCC4CCCCC4)nn3c2)c1 [Compound 36] | 3 | 64 | 
3 | CC(=O)Nc1cc(-c2ccc(Cl)cc2)n[nH]1 [Compound 2, N-(5-(4-Chlorophenyl)-1H-pyrazol-3-yl)acetamide] | 3 | 1.6 | inhibition at 30 µM [1]: 74%
4 | O=C(Nc1cc(-c2ccc(Cl)cc2)[nH]n1)c1cccnc1 [Compound 10, N-(5-(4-Chlorophenyl)-1H-pyrazol-3-yl)nicotinamide] |  |  | inhibition at 30 µM [1]: 100%
5 | O=C(Nc1cc(-c2ccc(Cl)cc2)[nH]n1)C1CCCCC1 [Compound 11, N-[5-(4-Chlorophenyl)-1H-pyrazol-3-yl]cyclohexanecarboxamide] |  |  | selectivity against panel of 76 human kinases (in words) [2]: highly selective; number of human kinases with >50 % inhibition at 10 μM ([2]; of 76 kinases): three; inhibition at 30 µM [1]: 100%
6 | CC1(C)CC(=O)C=C(NC(=O)Nc2ccccc2)C1 [Compound 50] | 0.095 | > 100 | EC50 [3]: ≥ 50 µM
7 | CN[C@@H]1C[C@H]2O[C@@](C)([C@@H]1OC)n1c3ccccc3c3c4c(c5c6ccccc6n2c5c31)C(=O)NC4 [staurosporine, reference compound] |  |  | IC50 (Leishmania CRK3–CYC6; potency (IC50) in radiometric Leishmania CRK3 assay): 0.0091 µM; IC50 [1]: 0.029 µM

Second part, led by results:

Row | IC50 (Leishmania CRK3–CYC6; [4]) [µM] | IC50 (HsCDK2–CYCA) [µM] | Compound | other results
8 | 0.04 | > 100 | COc1cccc(NC(=O)NC2=CC(=O)CC(C)(C)C2)c1 [Compound 56, 1-(5,5-Dimethyl-3-oxocyclohex-1-en-1-yl)-3-(3-methoxyphenyl)urea] | 
9 | 0.11 | > 100 | CC1(C)CC(=O)C=C(NC(=O)Nc2ccc(OCc3ccccc3)cc2)C1 [Compound 58] | selectivity against panel of 76 human kinases (in words) [2]: highly selective
10 | 8 | > 100 | COc1ccccc1NC(=O)NC1=CC(=O)CC(C)(C)C1 [Compound 55] | 
11 |  | > 100 | COC(=O)c1ccc(NC(=O)NC2=CC(=O)CC(C)(C)C2)cc1 [Compound 59] | selectivity against panel of 76 human kinases (in words) [2]: highly selective
12 |  | 5.9 | CC1(C)CC(=O)C=C(NC(=O)Nc2ccc(O)cc2)C1 [Compound 60] | 
13 | > 100 | > 100 | O=C1C=C(NC(=O)Nc2ccccc2)CCC1 [Compound 61] | 
14 | 0.89 | > 100 | COc1ccc(NC(=O)NC2=CC(=O)CC(C)(C)C2)cc1 [Compound 57] | 
15 | 0.098 | > 100 | CC1(C)CC(=O)C=C(NC(=O)NC2CCCCC2)C1 [Compound 54, 1-Cyclohexyl-3-(5,5-dimethyl-3-oxocyclohex-1-en-1-yl)urea] | 
